Reference: patent US5605929A, “Methods and compositions for inhibiting 5α-reductase activity” (priority 1995, dated 1997)
Where two headings read alike, the source gives them in different places. Values belong to the molecule of their own block, whether it stands above or below them.

Tests used:
5α-reductase [1] = details: cited from earlier work
[2] = molecular target: T1, human 5α-reductase isozyme type 2 (Homo sapiens, UniProt P31213); assay: [3H]4-MA binding, human type 2 isozyme expressed in Rat-1A cells; details: read-out: % Inhibition of [^3 H]4-MA binding
T1 construct: expressed in transfected cells; host or cells: Rat-1A cells infected with pMV7 retrovirus; microsomes of these cells
T1 sequence (P31213 1-254): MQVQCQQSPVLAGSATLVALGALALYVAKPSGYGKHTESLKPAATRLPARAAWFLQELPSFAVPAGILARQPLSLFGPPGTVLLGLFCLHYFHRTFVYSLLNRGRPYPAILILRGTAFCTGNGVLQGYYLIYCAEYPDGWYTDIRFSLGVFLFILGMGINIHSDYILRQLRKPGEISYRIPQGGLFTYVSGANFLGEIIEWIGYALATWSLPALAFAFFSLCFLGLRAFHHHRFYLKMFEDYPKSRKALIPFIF
Description: (§1) The cDNAs for the human type 1 and 2 5α-reductases were isolated from human prostate λZAP II™ cDNA libraries using the published sequence of the 5α-reductases, PCR™ and standard library screening techniques (Sambrook et al., 1989). The type 1 and 2 cDNAs correspond to nucleotides 31-870 and 28-829, respectively, of the published sequences for these 5α-reductases (Anderson and Russell, 1990; Anderson et al., 1991). The type 1 and 2 cDNAs were subcloned into the retroviral expression vector pMV7 (Kirschmeier et al., 1988) and high titer stocks of virus containing the type 1 and 2 cDNAs were generated using the packaging cells BOSC 23 293 (Kirschmeier et al., 1988). Rat.-1A cells (Pear et al., 1993) were infected with virus (Topp, 1981) and cells containing integrated retrovirus were selected for G418-SO4 resistance, (Brown and Scott, 1987).
(§2) Microsomes were prepared as described previously (Liang and Liao, 1992) from the liver of adult Sprague-Dawley female rats or Rat-1A cells expressing a specific type of human 5α-reductase. […] The data presented was based on the rate of reaction.
(§3) [^3 H]4-MA binding assay were described in detail previously (Liang and Liao, 1992; Liang et al., 1983). […] The reaction was started by the addition of 25 μl of microsomes (25 μg protein). After 30-60 min incubation at 0° C., the [^3 H]4-MA bound to microsomes was collected on a Whatman GF/F glass fiber, washed and radioactivity determined (Liang and Liao, 1992).

[3] = molecular target: T2, human 5α-reductase isozyme type 1 (Homo sapiens, UniProt P18405); assay: [3H]4-MA binding, human type 1 isozyme expressed in Rat-1A cells; details: read-out: % Inhibition of [^3 H]4-MA binding
T2 construct: expressed in transfected cells; host or cells: Rat-1A cells infected with pMV7 retrovirus; microsomes of these cells
T2 sequence (P18405 1-259): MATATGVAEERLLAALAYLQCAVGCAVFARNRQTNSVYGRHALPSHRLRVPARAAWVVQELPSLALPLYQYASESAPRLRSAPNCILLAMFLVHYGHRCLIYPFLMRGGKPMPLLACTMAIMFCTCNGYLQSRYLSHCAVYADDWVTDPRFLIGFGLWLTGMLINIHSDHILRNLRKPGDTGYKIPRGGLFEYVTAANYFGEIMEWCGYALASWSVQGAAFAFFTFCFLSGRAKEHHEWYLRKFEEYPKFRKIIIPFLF
Description: as §1, §2, §3

[4] = system: forehead sebum production; assay: Forehead sebum production (L/R ratio), human male; type: in vivo
Protocol: A volunteer was used to test and analyze sebum production from the forehead region. The forehead was washed thoroughly by soap twice and cleaned by 70% isopropyl alcohol twice. Sebum production was measured 30 to 60 minutes later by a sebum meter (Courage/Khazaka Electronic GmbH, Germany). The sebum meter tape probe (7 mm×8 mm) covered 56 mm^2 area in each measurement. Ten measurements were made within the 4 cm square area (16 cm^2) located at the middle of the left or right side forehead between the eyebrow and the hair line.
The sebum meter detected the difference in the transparency of the tape before and after the tape was placed on the forehead for 30 seconds and expressed the difference in an arbitrary number (S-value) between 0 to 300 (or higher). S-values of sebum accumulated on the foreheads of men are usually 200 to 300.

[5] = molecular target: T3, 5α-Reductase of Rat Liver Microsomes (Rattus norvegicus, UniProt P24008); assay: [3H]4-MA binding assay, rat liver microsomes (tea catechins); details: read-out: % Inhibition of [^3 H]4-MA binding
T3 sequence (P24008 1-259): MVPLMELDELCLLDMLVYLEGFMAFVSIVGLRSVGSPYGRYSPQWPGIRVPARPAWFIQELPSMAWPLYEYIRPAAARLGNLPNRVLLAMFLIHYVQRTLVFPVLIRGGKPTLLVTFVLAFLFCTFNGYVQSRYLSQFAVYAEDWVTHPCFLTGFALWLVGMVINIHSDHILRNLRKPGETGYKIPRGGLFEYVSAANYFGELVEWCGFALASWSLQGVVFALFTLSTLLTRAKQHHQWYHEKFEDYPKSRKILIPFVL
Protocol: Microsomes were prepared as described previously (Liang and Liao, 1992) from the liver of adult Sprague-Dawley female rats or Rat-1A cells expressing a specific type of human 5α-reductase. Each study was carried out in duplicate or triplicate which were usually within 10% of each other. Several studies were preformed to assure that the results shown are representative. The data presented was based on the rate of reaction.
as §3

[6] = molecular target: T1, human 5α-reductase isozyme type 2; assay: 4-[14C]testosterone reduction, human type 2 isozyme; type: biochemical; details: for inhibition at 1 µM / inhibition at 3 µM / inhibition at 10 µM / inhibition at 30 µM / inhibition at 100 µM: read-out: % Inhibition of 5α-reduction; for activity on type 2 isozyme: enzymatic assay, concentrations below 30 μM for ECG/EGCG
Description: as §1, §2
(§4) The reaction was started by the addition of 25 μl of microsomes (25 μg protein). The mixture was incubated at 37° for 30-60 min and stopped by addition of 0.5 ml of ethyl acetate and mixing for 1 min. The organic solvent extract was removed under vacuum.

[7] = system: ventral prostate and preputial organ; details: 5 mg ip daily, 14 days
Description: Male Sprague-Dawley rats, 60±5 g body weight, were used. Each group had 6 rats, and all were castrated.

[8] = molecular target: T2, human 5α-reductase isozyme type 1; assay: 4-[14C]testosterone reduction, human type 1 isozyme; type: biochemical; details: for inhibition at 1 µM / inhibition at 3 µM / inhibition at 10 µM / inhibition at 30 µM: read-out: % Inhibition of 5α-reduction; for activity on type 1 isozyme: enzymatic assay
Description: as §1, §2, §4

5α-reductase [9] = assay: Catechin gallates in rat liver microsomes or cells expressing type 1 or type 2 5α-reductase; type: biochemical; details: 40 μM
[10] = system: androgen-dependent organs; type: in vivo, rat; details: up to 15 mg per day
Protocol: The control rats were injected with 0.3 ml of 30% ethanol.

Soybean lipoxygenase = Soybean lipoxygenase (Glycine max, UniProt P08170); details: cited from earlier work
Chain of Soybean lipoxygenase (P08170 whole entry): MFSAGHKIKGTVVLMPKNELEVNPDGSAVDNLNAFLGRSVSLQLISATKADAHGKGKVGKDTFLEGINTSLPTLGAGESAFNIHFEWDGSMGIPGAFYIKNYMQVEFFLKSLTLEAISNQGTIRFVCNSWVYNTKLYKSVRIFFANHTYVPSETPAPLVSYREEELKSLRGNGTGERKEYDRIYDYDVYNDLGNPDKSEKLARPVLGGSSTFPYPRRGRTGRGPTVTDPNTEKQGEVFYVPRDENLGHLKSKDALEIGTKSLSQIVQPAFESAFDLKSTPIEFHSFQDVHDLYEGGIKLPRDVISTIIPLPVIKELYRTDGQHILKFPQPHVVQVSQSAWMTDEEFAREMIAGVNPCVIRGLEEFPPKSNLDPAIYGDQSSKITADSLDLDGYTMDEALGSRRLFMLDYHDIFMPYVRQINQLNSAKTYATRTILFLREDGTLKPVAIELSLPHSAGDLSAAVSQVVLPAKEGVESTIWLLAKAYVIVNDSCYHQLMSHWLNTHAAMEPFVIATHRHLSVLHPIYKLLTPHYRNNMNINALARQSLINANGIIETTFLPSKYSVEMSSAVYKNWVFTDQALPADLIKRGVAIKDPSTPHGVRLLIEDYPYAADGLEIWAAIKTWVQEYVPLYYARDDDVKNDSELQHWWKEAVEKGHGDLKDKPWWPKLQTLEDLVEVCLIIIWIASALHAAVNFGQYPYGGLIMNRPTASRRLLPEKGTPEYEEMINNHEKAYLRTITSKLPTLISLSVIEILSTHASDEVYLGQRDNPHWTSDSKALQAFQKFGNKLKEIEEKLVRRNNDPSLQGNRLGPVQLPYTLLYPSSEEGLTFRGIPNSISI

[11] = molecular target: T3, 5α-Reductase of Rat Liver Microsomes; assay: biochemical
Protocol: (§5) Briefly, the binding assay solution, in a final volume of 0.15 ml, contained microsomes (2-20 μg of protein), 0.08 μCi of [^3 H]4-MA, 0.1 mM-NADPH, 1 mM-dithiothreitol and 50 mM-potassium phosphate, pH 7.0, with or without the indicated amount of a lipid or an inhibitor preparation. Lipids were dissolved in ethanol and added in 1-5 μl volumes. Control tubes received the same amount of ethanol. After incubation at 0° C. for 1 h, the [^3 H]4-MA bound to microsomes was determined by collecting microsomes on a Whatman GF/1F glass fibre filter and washing with 10 ml of 20 mM-potassium phosphate, pH 7.0, containing 0.01% CHAPS to remove unbound [^3 H]4-MA.
(§6) Microsomes were prepared at 4° C. from a buffered 0.32M-sucrose homogenate of human liver and from the livers of adult Sprague-Dawley female rats by differential centrifugation as described previously (Liang et al., 1990), and were used in the assay of 5α-reductase activity. In some experiments, microsomes were solubilized with 0.1% polyoxyethylene ether W-1 as described previously (Liang et al., 1990), except for the substitution of polyoxyethylene ether W-1 for Lubrol-WX.

microsomal 5α-reductase = molecular target: T4, microsomal 5α-reductase (Rattus norvegicus, UniProt P24008); assay: Enzymatic assay of microsomal 5α-reductase (testosterone to 5α-DHT); type: biochemical; details: prostate or liver microsomes
T4 construct: from the livers of adult Sprague-Dawley female rats; from tissue; host or cells: liver microsomes of adult female Sprague-Dawley rats
T4 sequence (P24008 1-259): T3 sequence (P24008 1-259)
Protocol: as §6

[12] = molecular target: T3, 5α-Reductase of Rat Liver Microsomes
Protocol: as §5, §6

hamster flank organ = assay: Flank organ, castrated immature male hamsters, topical treatment; type: in vivo, Syrian golden hamster
How it was run: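 Castrated immature male hamsters (5 per group) received 5 μl once daily on the right flank organ of ethanol vehicle, androgen (T or 5α-DHT), fatty acid, or androgen plus fatty acid. The left organ was left untreated. Pigmented macule and sebaceous gland growth were assessed with caliper long and short axes, as mean ± SD.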

Structure (SMILES): C[C@]12CC[C@H]3[C@@H](CCC4=CC(=O)CC[C@@]43C)[C@@H]1CC[C@@H]2C(=O)O [4-androstane-3-one-17β-carboxylic acid]
- 5α-reductase inhibition (5α-reductase [1]): shown to inhibit 5α-reductase

Structure (SMILES): C[C@]12CC[C@H]3[C@@H](CCC4C(=[N+]=[N-])C(=O)CC[C@@]43C)[C@@H]1CC[C@@H]2CCCO (stereo partly shown) [4-diazo-21-hydroxymethyl-pregnane-3-one]
- 5α-reductase inhibition (5α-reductase [1]): shown to inhibit 5α-reductase

- inhibition at 1 µM ([2]; Table 9, 1 μM): < 10%
- inhibition at 3 µM ([2]; Table 9, 3 μM): < 10%
- inhibition at 10 µM ([2]; Table 9, 10 μM): < 10%
- inhibition at 30 µM ([2]; Table 9, 30 μM): < 10%
- inhibition at 100 µM ([2]; Table 9, 100 μM): < 10%
- inhibition at 1 µM ([3]; Table 9, 1 μM): < 10%
- inhibition at 3 µM ([3]; Table 9, 3 μM): 13%
- inhibition at 10 µM ([3]; Table 9, 10 μM): < 10%
- inhibition at 30 µM ([3]; Table 9, 30 μM): < 10%
- inhibition at 100 µM ([3]; Table 9, 100 μM): 18%
- inhibition at 5 µM ([5]; Table 8, 5 μM): < 10%
- inhibition at 10 µM ([5]; Table 8, 10 μM): < 10%
- inhibition at 20 µM ([5]; Table 8, 20 μM): < 10%
- inhibition at 40 µM ([5]; Table 8, 40 μM): < 10%
- inhibition at 200 µM ([5]; Table 8, 200 μM): < 10%
- inhibition at 1 µM ([6]; Table 10, 1 μM): < 10%
- inhibition at 3 µM ([6]; Table 10, 3 μM): < 10%
- inhibition at 10 µM ([6]; Table 10, 10 μM): < 10%
- inhibition at 30 µM ([6]; Table 10, 30 μM): < 10%
- inhibition at 100 µM ([6]; Table 10, 100 μM): < 10%
- inhibition at 1 µM ([8]; Table 10, 1 μM): < 10%
- inhibition at 3 µM ([8]; Table 10, 3 μM): 13%
- inhibition at 10 µM ([8]; Table 10, 10 μM): < 10%
- inhibition at 30 µM ([8]; Table 10, 30 μM): < 10%
- activity on type 1 isozyme [8]: not active
Structure (SMILES): Oc1cc(O)c2c(c1)O[C@H](c1ccc(O)c(O)c1)[C@H](O)C2 [EC, (-)Epicatechin]
- L/R sebum ratio at end of treatment ([4]; 20 mg twice a day, 6 days): 1.02±0.1
- L/R sebum ratio recovered after treatment stopped ([4]; 10 days after stop): 1.21±0.01
- activity on type 2 isozyme [6]: not active
- effect on body weight increase [7]: not EC or γ-LA
- effect on ventral prostate and preputial organ weights [7]: not EC
- inhibition (5α-reductase [9]): less than 25%

Structure (SMILES): Oc1cc(O)c2c(c1)O[C@H](c1cc(O)c(O)c(O)c1)[C@H](O)C2 [EGC, (-)Epigallocatechin]
- inhibition at 1 µM [2]: < 10%
- inhibition at 3 µM [2]: < 10%
- inhibition at 10 µM [2]: < 10%
- inhibition at 30 µM [2]: 13%
- inhibition at 100 µM [2]: 14%
- inhibition at 1 µM [3]: < 10%
- inhibition at 3 µM [3]: < 10%
- inhibition at 10 µM [3]: < 10%
- inhibition at 30 µM [3]: < 10%
- inhibition at 100 µM [3]: 23%
- inhibition at 5 µM [5]: < 10%
- inhibition at 10 µM [5]: < 10%
- inhibition at 20 µM [5]: < 10%
- inhibition at 40 µM [5]: < 10%
- inhibition at 200 µM [5]: < 10%
- effect on the body weight [10]: No significant effect
- activity on type 2 isozyme [6]: not active
- inhibition at 1 µM [6]: < 10%
- inhibition at 3 µM [6]: < 10%
- inhibition at 10 µM [6]: < 10%
- inhibition at 30 µM [6]: < 10%
- inhibition at 100 µM [6]: < 10%
- IC50 (Soybean lipoxygenase): 21 µM
- activity on type 1 isozyme [8]: not active
- inhibition at 1 µM [8]: < 10%
- inhibition at 3 µM [8]: < 10%
- inhibition at 10 µM [8]: < 10%
- inhibition at 30 µM [8]: < 10%

Structure (SMILES): CCCCC/C=C/C/C=C/CCCCCCCC(=O)O [Linolelaidic acid]
- inhibition at 40 µM ([11]; read-out: % Inhibition of [^3 H]4-MA binding, Table 1, 40 μM): < 10%
- inhibition at 200 µM ([11]; read-out: % Inhibition of [^3 H]4-MA binding, Table 1, 200 μM): 19 ± 5%
- inhibition at 10 µM ([11]; read-out: % Inhibition of [^3 H]4-MA binding, Table 2, 10 μM): < 10%
- inhibition at 40 µM ([11]; read-out: % Inhibition of [^3 H]4-MA binding, Table 2, 40 μM): < 10%
- inhibition at 200 µM ([11]; read-out: % Inhibition of [^3 H]4-MA binding, Table 2, 200 μM): 19%
- inhibition in the enzymatic assay (microsomal 5α-reductase): as potent as their cis isomers
- inhibitory activity in [^3 H]4-MA binding assay [12]: much less inhibitory than their cis isomers
- p (significance of inhibition) (hamster flank organ; Table 5, T 0.5 μg + fatty acid 1 mg): N.S.
- Pigmented macule Right (+T) (hamster flank organ; Table 5, T 0.5 μg + fatty acid 1 mg, 21 days, T alone 49.6 ± 8.3): 46.6 ± 8.7 mm^2
- Pigmented macule Left (hamster flank organ; Table 5, fatty acid 1 mg without T, 21 days): 4.1 ± 0.7 mm^2
- inhibition of T-induced growth of pigmented macule (hamster flank organ; hamster, in vivo): inactive

Structure (SMILES): Cc1c(O[C@@H](C)c2ccc(CC(C)C)cc2)ccc(C(=O)Nc2ccccc2OCCCC(=O)O)c1C [ONO-3805]
- 5α-reductase inhibition (5α-reductase [1]): 5α-reductase inhibitory activity
